Reference: patent US20080242698A1, “Organic Compounds” (priority 2005, published 2008)

melting point	Compound
72 to 78 °C	Cl.O=C(CNCC(c1ccccc1)c1ccccc1)N1CCc2ccccc2C1
240 to 243 °C	CC(C)N(C(=O)CNCC(c1ccccc1)c1ccccc1)c1ccccc1.Cl
224 to 226 °C	CC(C)N(C(=O)CNCc1cccc2ccccc12)c1ccccc1.Cl
245 to 250 °C	CC(C)N(C(=O)CNCc1ccc(Cl)c(Cl)c1)c1ccccc1.Cl
233 to 235 °C	CS(=O)(=O)O.CS(=O)(=O)O.Clc1ccc(C(NCCNC(c2ccccc2)c2ccc(Cl)cc2)c2ccccc2)cc1 (stereo not drawn)
215 to 216 °C	Cl.O=C(CNCC(c1ccccc1)c1ccccc1)N1c2ccccc2Oc2ccccc21
250 °C	Cl.O=C(CNCC(c1ccccc1)c1ccccc1)n1c2ccccc2c2ccccc21
132 to 134 °C	Cl.O=C(CNC(c1ccccc1)c1ccccc1)Nc1cccc2ccccc12
151 to 158 °C	Cl.O=C(CNC(c1ccccc1)c1ccccc1)Nc1ccccc1-c1ccccc1
213 to 214.5 °C	Cl.O=C(CNCc1ccccc1Cl)N(c1ccccc1)c1ccccc1
188 to 190 °C	Cl.O=C(CNCC(c1ccccc1)c1ccccc1)N(Cc1ccccc1)c1ccccc1
190 to 192 °C	Cl.O=C(CNCc1ccccc1Cl)N(Cc1ccccc1)c1ccccc1
181 to 182 °C	Cl.O=C(CNC(c1ccccc1)c1ccccc1)N(Cc1ccccc1)c1ccccc1
191 to 194 °C	Cl.O=C(CNC(c1ccccc1)c1ccccc1)N1CCCc2ccccc21
241 to 243 °C	CC(C)N(C(=O)CNC(c1ccccc1)c1ccccc1)c1ccccc1.Cl
82 to 95 °C	Cc1cccc2c1N(C(=O)CNCC(c1ccccc1)c1ccccc1)CCC2.Cl
128 to 136 °C	Cc1cccc2c1N(C(=O)CNC(c1ccccc1)c1ccccc1)CCC2.Cl
232 to 234 °C	Cl.O=C(CNCC(c1ccccc1)c1ccccc1)N(c1ccccc1)c1ccccc1
210 to 212 °C	CC(CNCC(=O)N1CCCc2ccccc21)(c1ccccc1)c1ccccc1.Cl
201 to 203 °C	Cl.O=C(CN1CCc2ccccc2C1)N1CCCc2ccccc21
245 to 246 °C	Cl.O=C(CNC1CCCc2ccccc21)N1c2ccccc2C=Cc2ccccc21 (stereo not drawn)
234 to 237 °C	Cl.O=C(CNCc1ccccc1)N(c1ccccc1)c1ccccc1
233 to 235 °C	Cl.O=C(CNCc1cccc2ccccc12)N(c1ccccc1)c1ccccc1
227 to 230 °C	Cl.O=C(CNCCC(c1ccccc1)c1ccccc1)N(c1ccccc1)c1ccccc1
244 to 249 °C	Cl.O=C(CNCc1ccc(Cl)c(Cl)c1)N1c2ccccc2C=Cc2ccccc21
243 to 259 °C	Cl.O=C(CNCCc1ccccc1)N1c2ccccc2C=Cc2ccccc21
174 to 178 °C	Cl.O=C(CNCC(c1ccccc1)c1ccccc1)N1CCCc2ccccc21

melting point	Compound
221 to 223 °C	CN(C(=O)CNCC(c1ccccc1)c1ccccc1)c1ccccc1.Cl
177.5 to 178.1 °C	Cl.O=C(CNC(c1ccccc1)c1ccccc1)NCCC(c1ccccc1)c1ccccc1
161.9 to 162.9 °C	Cl.O=C(CNC(c1ccccc1)c1ccccc1)NCc1ccccc1
274 to 295 °C	Cl.O=C(CNC1CCc2ccccc2C1)N(c1ccccc1)c1ccccc1 (stereo not drawn)
177 to 185 °C (dec.)	Cl.NC(C(=O)NCC(=O)N(c1ccccc1)c1ccccc1)c1ccccc1 (stereo not drawn)
179 to 185 °C	Cl.N[C@@H](C(=O)NCC(=O)N1c2ccccc2C=Cc2ccccc21)c1ccccc1
192 to 233 °C	Cl.N[C@H](C(=O)NCC(=O)N1c2ccccc2C=Cc2ccccc21)c1ccccc1
221 to 224 °C	CN(C(=O)CNCc1ccc(Cl)c(Cl)c1)c1ccccc1.Cl
153 to 155 °C	COc1ccc(CNC(C(=O)NCc2ccccc2)c2ccccc2)cc1.O=C(O)/C=C/C(=O)O (racemic)
159 to 161 °C	CN(C)c1ccc(CNC(C(=O)NCc2ccccc2)c2ccccc2)cc1.O=C(O)/C=C/C(=O)O (racemic)
218.4 to 219.2 °C (dec.)	Cl.O=C(NCc1ccccc1)C(NC(c1ccccc1)c1ccccc1)c1ccccc1 (racemic)
215 to 216 °C	Cl.O=C(NCc1cccc(Cl)c1)C(NC(c1ccccc1)c1ccccc1)c1ccccc1 (racemic)
172 to 173 °C	CC(CN(C)C)N1c2ccccc2CCc2ccccc21.Cl (racemic)
212 to 215 °C	CC1CCc2ccccc2N1C(=O)CNCC(c1ccccc1)c1ccccc1.Cl (racemic)
232 to 236 °C	CC(NCC(=O)N(c1ccccc1)c1ccccc1)c1ccccc1.Cl (racemic)
122 to 125 °C	CC(NCC(c1ccccc1)c1ccccc1)C(=O)N(c1ccccc1)c1ccccc1.Cl (racemic)
208 to 210 °C	CC(NC1Cc2ccccc2C1)C(=O)N(c1ccccc1)c1ccccc1.Cl (racemic)
210.3 to 212 °C	CC(NC(c1ccccc1)c1ccccc1)C(=O)NCCC(c1ccccc1)c1ccccc1.Cl (racemic)
109 to 119.5 °C	O=C(NCc1ccccc1)C(c1ccccc1)N(Cc1ccccc1)Cc1ccccc1 (racemic) [Example 106, rac-N-Benzyl-2-dibenzylamino-2-phenyl-acetamide]
107 to 108 °C	COc1cc(CNC(C(=O)NCc2ccccc2)c2ccccc2)cc(OC)c1 (racemic) [Example 112, rac-N-Benzyl-2-(3,5-dimethoxy-benzylamino)-2-phenyl-acetamide]
68 to 70 °C	O=C(NCC(c1ccccc1)c1ccccc1)C(Cc1ccccc1)NCc1ccccn1 (racemic) [Example 136, rac-N-(2,2-Diphenyl-ethyl)-3-phenyl-2-[(pyridin-2-ylmethyl)-amino]-propion-amide]
98 to 99 °C	O=C(CNCc1ccccc1Cl)NC(c1ccccc1)c1ccccc1 [Example 5, N-Benzhydryl-2-(2-chloro-benzylamino)-acetamide]
202 to 204 °C	O=C(CN1CCc2ccccc2C1)N(c1ccccc1)c1ccccc1 [Example 14, 2-(3,4-Dihydro-1H-isoquinolin-2-yl)-N,N-diphenyl-acetamide]
122 to 123 °C	O=C(CNC(c1ccccc1)c1ccccc1)N(c1ccccc1)c1ccccc1 [Example 15, 2-(Benzhydryl-amino)-N,N-diphenyl-acetamide]
115 to 116 °C	CN(C(=O)CNC(c1ccccc1)c1ccccc1)c1ccccc1 [Example 24, 2-(Benzhydryl-amino)-N-methyl-N-phenyl-acetamide]
82 to 84 °C	O=C(CNC1c2ccccc2-c2ccccc21)N1CCCc2ccccc21 [Example 31, 1-(3,4-Dihydro-2H-quinolin-1-yl)-2-(9H-fluoren-9-ylamino)-ethanone]
258 to 260 °C	O=C(NC(C(=O)NCc1ccccc1)c1ccccc1)c1ccc2cc(C(=O)O)[nH]c2c1 (stereo not drawn) [Example 117, 6-[(Benzylcarbamoyl-phenyl-methyl)-carbamoyl]-1H-indole-2-carboxylic acid]
